Test system: neuropathic pain
Assay: oral administration to a patient with neuropathic pain
Format: in vivo, human
Details: one patient, 10 mg orally once daily for weight loss; pain returned on discontinuation, disappeared again on re-administration
Method: Sibutramine 10 mg was administered orally once daily for weight loss to a patient who also had neuropathic pain. The neuropathic pain disappeared. Therapy with sibutramine was discontinued and the neuropathic pain returned. When sibutramine was then administered again, the neuropathic pain disappeared.

For CC(C)CC(N(C)C)C1(c2ccc(Cl)cc2)CCC1 (stereo not shown) [Sibutramine, N,N-dimethyl-1-[1-(4-chlorophenyl)cyclobutyl]-3-methylbutylamine], which neuropathic pain is on record?
The neuropathic pain was “disappeared”.
